Entries after “also recorded” stand apart in the source; their conditions may differ.
Assay: Clinical observations for dogs in pharmacokinetic studies
Format: in vivo, Beagle dogs
Settings: 48 mg/kg
Procedure: Weight monitoring was done every week.
The dose formulation (concentration—400 mg base equivalents/ml in sesame oil+1% benzyl alcohol, unless otherwise specified) was administered via deep intramuscularly (unless otherwise specified). The injection vehicle was also dosed via deep intramuscular route (unless otherwise specified) on contralateral site of each animal at study initiation. The animals were sedated with Propofol at 6 mg/kg via IV administration. Following sedation hair was carefully removed from around the injection site and the area gently cleaned. Care will be taken to avoid irritating skin during shaving and cleaning the injection site. Then dogs will be dosed with deep IM administration. At least 2.5 cm depth from the surface into the central aspect of the quadriceps or biceps femoris muscle, by angling the needle toward the femur. If the needle hits the femur, simply draws back slightly and then inject. The dose volume will be determined by the animals' body weight collected on the morning of dosing day. For repeated administration, the injection sites may be rotated to minimize tissue injury.

[1] = dog D1502 (third dog, c6), 96 hr
[2] = dog D1502 (third dog, c6), 120 hr
[3] = dog D1502 (third dog, c6), 144 hr
[4] = dog D1502 (third dog, c6), 192 hr
[5] = dog D1502 (third dog, c6), 216 hr

**Q.** What does the source list for `C=C1CC[C@@]2(O)C3Cc4ccc(OC(=O)OCCCCCCCCCCC)c5c4[C@@]2(CCN3CC2CC2)[C@H]1O5` [Compound 3, (4aS,7aS,12bS)-3-(cyclopropylmethyl)-4a-hydroxy-7-methylene-2,3,4,4a,5,6,7,7a-octahydro-1H-4,12-methanobenzofuro[3,2-e]isoquinolin-9-yl undecyl carbonate]?
**A.** BT (dog D1001, Day 1): cm/BT: 39.2° C./; BT (dog D1001, Day 2): 38.9 °C; BT (dog D1001, Day 3): 39.1 °C; BT (dog D1001, Day 4): 38.5 °C; BT (dog D1001, Day 5): 38.6 °C; BT (dog D1001, Day 6): 38.4 °C; BT (dog D1001, Day 7): 38.4 °C; BT (dog D1001, Day 8): 38.7 °C; BT (dog D1001, Day 9): 38.7 °C; BT (dog D1001, Day 10): 38.4 °C; BT (dog D1001, Day 11): 38.8 °C; BT (dog D1001, Day 12): 38.0 °C; BT (dog D1001, Day 13): 38.4 °C; BT (dog D1001, Day 15): 37.8 °C; BT (dog D1001, Day 17): BT: 38.3 °C; BT (dog D1001, Day 18): BT: 38.4 °C; BT (dog D1001, Day 19): BT: 38.3 °C; BT (dog D1001, Day 20): BT: 37.9 °C; BT (dog D1001, Day 21): BT: 38.6 °C; BT (dog D1001, Day 22): BT: 38.8 °C; BT (dog D1001, Day 23): BT: 38.3 °C; BT (dog D1001, Day 24): BT: 38.5 °C; BT (dog D1001, Day 25): BT: 38.4 °C; BT (dog D1001, Day 26): BT: 38.2 °C; BT (dog D1001, Day 27): BT: 38.4 °C; BT (dog D1002, Day 1): 39.1 °C; BT (dog D1002, Day 2): 39.3 °C; BT (dog D1002, Day 3): 39.3 °C; BT (dog D1002, Day 4): 38.5 °C; BT (dog D1002, Day 5): 38.7 °C; BT (dog D1002, Day 6): 38.8 °C; BT (dog D1002, Day 7): 38.6 °C; BT (dog D1002, Day 8): 38.7 °C; BT (dog D1002, Day 9): 38.3 °C; BT (dog D1002, Day 10): calf/BT: 38.3 °C; BT (dog D1002, Day 11): 38.9 °C; BT (dog D1002, Day 12): 38.5 °C; BT (dog D1002, Day 13): 38.8 °C; BT (dog D1002, Day 14): 38.3 °C; BT (dog D1002, Day 15): 37.8 °C; BT (dog D1002, Day 17): 38.7 °C; BT (dog D1002, Day 18): 38.8 °C; BT (dog D1002, Day 19): 38.7 °C; BT (dog D1002, Day 20): 38.6 °C; BT (dog D1002, Day 21): BT: 38.5 °C; BT (dog D1002, Day 22): BT: 39.3 °C; BT (dog D1002, Day 23): BT: 38.8 °C; BT (dog D1002, Day 24): BT: 39.1 °C; BT (dog D1002, Day 25): BT: 38.6 °C; BT (dog D1002, Day 26): BT: 38.6 °C; BT (dog D1002, Day 27): cm/BT: 38.6 °C; Clinical observation, R-TA (dog D1003, 8 hr): Swelling 4 * 3; BT (dog D1003, Day 1): side/BT: 39.6 °C; BT (dog D1003, Day 2): side/BT: 39.7 °C; BT (dog D1003, Day 3): 39.2 °C; BT (dog D1003, Day 4): site/BT: 38.7 °C; BT (dog D1003, Day 5): 39.0 °C; BT (dog D1003, Day 6): 39.2 °C; BT (dog D1003, Day 7): 39.5 °C; BT (dog D1003, Day 8): 39.4 °C; BT (dog D1003, Day 9): 38.8 °C; BT (dog D1003, Day 10): 38.9 °C; BT (dog D1003, Day 11): swelling/BT: 39.4 °C; BT (dog D1003, Day 12): swelling/BT: 39.3 °C; BT (dog D1003, Day 13): swelling/BT: 39.9 °C; BT (dog D1003, Day 15): swelling/BT: 39.4 °C; BT (dog D1003, Day 17): swelling/BT: 39.5 °C; BT (dog D1003, Day 18): swelling/BT: 39.5 °C; BT (dog D1003, Day 19): swelling/BT: 39.4 °C; BT (dog D1003, Day 21): swelling/BT: 39.3 °C; BT (dog D1003, Day 22): swelling/BT: 39.9 °C; BT (dog D1003, Day 24): BT: 39.5 °C; BT (dog D1003, Day 25): BT: 39.8 °C; BT (dog D1003, Day 26): BT: 39.3 °C; BT (dog D1003, Day 27): BT: 38.9 °C

**Q.** With `C=C1CC[C@@]2(O)C3Cc4ccc(OCOC(=O)OCCCCCCCCCC)c5c4[C@@]2(CCN3CC2CC2)[C@H]1O5` [Compound 35, (((4aS,7aS,12bS)-3-(cyclopropylmethyl)-4a-hydroxy-7-methylene-2,3,4,4a,5,6,7,7a-octahydro-1H-4,12-methanobenzofuro[3,2-e]isoquinolin-9-yl)oxy)methyl decyl carbonate] as the compound, how does the “Clinical observation, R-TA” value (dog D1501, 24 hr) read?
**A.** Red spots at groin

**Q.** And the “Clinical observation, R-TA” value (dog D1501, 48 hr)?
**A.** Red spots at groin

**Q.** What about the BT (dog D1501, 72 hr) of the same compound?
**A.** at groin/BT: 39.1 °C

**Q.** What about the “Clinical observation, R-TA” value (dog D1501, 72 hr) of the same compound?
**A.** Swelling; also recorded: Red spots

**Q.** What about the BT (dog D1501, 96 hr) of the same compound?
**A.** at groin/BT: 39.0 °C

**Q.** And the “Clinical observation, R-TA” value (dog D1501, 96 hr)?
**A.** Swelling; also recorded: Red spots

**Q.** What about the BT (dog D1501, 120 hr) of the same compound?
**A.** at groin/BT: 39.1 °C

**Q.** What about the “Clinical observation, R-TA” value (dog D1501, 120 hr) of the same compound?
**A.** Swelling; also recorded: Red spots

**Q.** What about the BT (dog D1501, 144 hr) of the same compound?
**A.** groin/BT: 38.7 °C

**Q.** What about the BT (dog D1501, 192 hr) of the same compound?
**A.** groin/BT: 38.2 °C

**Q.** And the BT (dog D1501, 216 hr)?
**A.** groin/BT: 38.6 °C

**Q.** What about the “Clinical observation, R-TA” value (dog D1501, 216 hr) of the same compound?
**A.** redness/Red spots at

**Q.** What about the BT (dog D1501, 240 hr) of the same compound?
**A.** groin/BT: 38.2 °C

**Q.** And the “Clinical observation, R-TA” value (dog D1501, 240 hr)?
**A.** induration

**Q.** And the BT (dog D1501, 264 hr)?
**A.** groin/BT: 38.0 °C

**Q.** What about the “Clinical observation, R-TA” value (dog D1501, 264 hr) of the same compound?
**A.** induration

**Q.** What about the BT (dog D1501, 288 hr) of the same compound?
**A.** groin/BT: 38.4 °C

**Q.** What about the “Clinical observation, R-TA” value (dog D1501, 288 hr) of the same compound?
**A.** induration

**Q.** And the BT (dog D1501, […])?
**A.** groin/BT: 38.9 °C

**Q.** What about the “Clinical observation, R-TA” value (dog D1501, day 13) of the same compound?
**A.** induration

**Q.** And the “Clinical observation, R-TA” value (dog D1501, day 14)?
**A.** induration

**Q.** What about the “Clinical observation, R-TA” value (dog D1501, day 15) of the same compound?
**A.** induration

**Q.** And the “Clinical observation, R-TA” value (dog D1501, day 16)?
**A.** induration

**Q.** And the “Clinical observation, R-TA” value (dog D1501, day 17)?
**A.** induration

**Q.** And the “Clinical observation, R-TA” value (dog D1501, day 18)?
**A.** induration

**Q.** And the “Clinical observation, R-TA” value (dog D1502 (third dog, c6), 24 hr)?
**A.** Slight swelling/red

**Q.** And the “Clinical observation, R-TA” value (dog D1502 (third dog, c6), 48 hr)?
**A.** Slight swelling/red

**Q.** What about the BT (dog D1502 (third dog, c6), 72 hr) of the same compound?
**A.** leg/BT: 39.3 °C

**Q.** What about the BT [1] of the same compound?
**A.** leg/BT: 39.3 °C

**Q.** And the “Clinical observation, R-TA” value [1]?
**A.** induration and red

**Q.** And the BT [2]?
**A.** BT: 39.4 °C

**Q.** And the “Clinical observation, R-TA” value [2]?
**A.** induration and red

**Q.** And the BT [3]?
**A.** BT: 39.0 °C

**Q.** And the “Clinical observation, R-TA” value [3]?
**A.** induration and red

**Q.** And the BT [4]?
**A.** at calf/BT: 39.2 °C

**Q.** And the “Clinical observation, R-TA” value [4]?
**A.** Obvious swelling

**Q.** What about the BT [5] of the same compound?
**A.** calf/BT: 39.2 °C

**Q.** What about the “Clinical observation, R-TA” value [5] of the same compound?
**A.** red spot

**Q.** What about the BT (dog D1502 (third dog, c6), 240 hr) of the same compound?
**A.** calf/BT: 38.9 °C

**Q.** And the BT (dog D1502 (third dog, c6), 264 hr)?
**A.** 38.7 °C

**Q.** And the BT (dog D1502 (third dog, c6), 288 hr)?
**A.** 38.7 °C

**Q.** And the BT (dog D1502 (third dog, c6), […])?
**A.** at calf/BT: 39.3 °C

**Q.** What about the “Clinical observation, R-TA” value (dog D1502 (third dog, c6), day 20) of the same compound?
**A.** Not obvious

**Q.** What about the BT (dog D1502, 72 hr) of the same compound?
**A.** 39.6 °C

**Q.** What about the “Clinical observation, R-TA” value (dog D1502, 72 hr) of the same compound?
**A.** red

**Q.** And the BT (dog D1502, 96 hr)?
**A.** 38.9 °C

**Q.** And the BT (dog D1502, 120 hr)?
**A.** 39.6 °C

**Q.** What about the BT (dog D1502, 144 hr) of the same compound?
**A.** 38.9 °C

**Q.** And the “Clinical observation, R-TA” value (dog D1502, 144 hr)?
**A.** redness

**Q.** And the BT (dog D1502, 192 hr)?
**A.** BT: 38.7 °C

**Q.** What about the BT (dog D1502, 216 hr) of the same compound?
**A.** BT: 39.2 °C

**Q.** And the BT (dog D1502, 240 hr)?
**A.** BT: 38.6 °C

**Q.** What about the BT (dog D1502, 264 hr) of the same compound?
**A.** BT: 38.4 °C

**Q.** What about the BT (dog D1502, 288 hr) of the same compound?
**A.** BT: 38.6 °C

**Q.** And the BT (dog D1502, […])?
**A.** 39.9 °C

Source: US10544154B2, “Opioid receptor antagonist prodrugs” (Nirsum Laboratories, Inc., priority 2017, dated 2020)
